The values below are quoted from earlier work in US20250270235A1, “COMPLEX OF GADOLINIUM AND A CHELATING LIGAND DERIVED OF A DIASTEREOISOMERICALLY ENRICHED PCTA AND SYNTHESIS METHOD” (GUERBET, priority 2019, published 2025).

The conditions of data set [1]: comparative, same conditions (pH 1.2, 37° C.); cited from earlier work.
For data set [2] the following is noted: as described in WO 2014/174120; comparative; cited from earlier work.

Turning to `O=C([O-])CN1CCN(CC(=O)[O-])CCN([C@H](CO)[C@H](O)CO)CCN(CC(=O)[O-])CC1.[Gd+3]` (racemic) [gadobutrol], in data set [1], the kinetic inertia is 18 h. For `O=C([O-])CN1CCN(CC(=O)[O-])CCN(CC(=O)O)CCN(CC(=O)[O-])CC1.[Gd+3]` [DOTA-Gd, gadolinium complex of 1,4,7,10-tetraazacyclododecane-N,N′,N″,N′″-tetraacetic acid], the “log (Ktherm), stability constant” value in data set [2] is on record as 25.6. With `CNC(=O)CN(CCN(CCN(CC(=O)[O-])CC(=O)NC)CC(=O)[O-])CC(=O)[O-].[Gd+3]` [gadodiamide], the “kinetic inertia (dissociation, in words)” value in data set [1] was “dissociate instantaneously”. Regarding `O=C([O-])CN(CCN(CC(=O)[O-])CC(=O)[O-])CCN(CC(=O)[O-])CC(=O)[O-].[Gd+3]` [gadopentetate], the “kinetic inertia (dissociation, in words)” value in data set [1] is given as “dissociate instantaneously”. For `CNC[C@H](O)[C@@H](O)[C@H](O)[C@H](O)CO.O=C([O-])CN1CCN(CC(=O)[O-])CCN(CC(=O)O)CCN(CC(=O)[O-])CC1.[Gd+3]` [gadoterate], the kinetic inertia in data set [1] was 96 h.
